Assay: Plasma pharmacokinetics after a single subcutaneous administration of LEN
Assay type: in vivo, rhesus macaques
Settings: for concentration at 8 week: week 8 post dose; for concentration at 9 week: week 9 post dose; for concentration at 10 week: week 10 post dose; for concentration at 11 week: week 11 post dose; for concentration at 12 week: week 12 post dose; for concentration at 14 week: week 14 post dose
Description: All animals were housed at Bioqual Inc. For the in vivo SHIV stock titration study, 8 untreated outbred Indian-origin male rhesus macaques aged 3–5 years were challenged intrarectally per round for a total of 5 challenge rounds using increasing virus doses ranging from 0.625 to 100 TCID50, with the 100 TCID50 round performed twice for increased resolution (Supplemental Table 2). Plasma viral load was measured to confirm the infection status. […] Injection sites were monitored daily by veterinary staff for 2 weeks and then weekly through the end of study. On week 7, 11 animals were challenged by the intrarectal route with 1 mL RPMI containing 100 TCID50 SHIV-SF162P3. Whole blood was collected and processed into plasma and PBMCs as necessary for the assessment of routine hematology and clinical chemistry, viral load analysis, serology, and the bioanalysis of drug levels. Animals were considered protected if they remained SHIV negative by a plasma PCR assay and seronegative by enzyme immunoassay through week 10 after challenge.
Rhesus plasma samples were stored frozen at –80°C and thawed, and a 50 μL aliquot of each was treated with 200 μL acetonitrile containing an internal standard. After precipitation of the protein component, a 100 μL aliquot of the supernatant was transferred to a clean 96-well plate and mixed with 200 μL water. A 10 μL aliquot of the above solution was then injected into a Q-Exactive high resolution mass spectrometer from Thermo Electron with electrospray ionization in positive mode.

[1] = male, Indian-origin (outbred), rhesus monkey, plasma, subcutaneous, 5 mg/kg, Plasma LEN (Mean), 5 mg/kg sc
[2] = male, Indian-origin (outbred), rhesus monkey, plasma, subcutaneous, 10 mg/kg, Plasma LEN (Mean), 10 mg/kg sc
[3] = male, Indian-origin (outbred), rhesus monkey, plasma, subcutaneous, 20 mg/kg, Plasma LEN (Mean), 20 mg/kg sc

SMILES: CC(C)(C#Cc1ccc(-c2ccc(Cl)c3c(NS(C)(=O)=O)nn(CC(F)(F)F)c23)c([C@H](Cc2cc(F)cc(F)c2)NC(=O)Cn2nc(C(F)(F)F)c3c2C(F)(F)[C@@H]2C[C@H]32)n1)S(C)(=O)=O [LEN, Lenacapavir]
- dose proportionality of exposure (5 to 20 mg/kg sc): dose-proportional increase
- dose proportionality of exposure (50 to 75 mg/kg sc): more than dose-proportional increase
- Plasma LEN (animal BM55, 20 mg/kg, week 0 post challenge): 38.60 nM
- Plasma LEN (animal BM55, 20 mg/kg, week 6 post challenge): 10.80 nM
- Plasma LEN (animal BM55, 20 mg/kg, week 7 post challenge): 7.10 nM
- Plasma LEN (animal BM55, 20 mg/kg, week 8 post challenge): 5.30 nM
- Plasma LEN (animal BM55, 20 mg/kg, week 9 post challenge): 3.80 nM
- Plasma LEN (animal BM55, 20 mg/kg, week 10 post challenge): 4.10 nM
- Plasma LEN (animal BN33, 20 mg/kg, week 0 post challenge): 18.60 nM
- Plasma LEN (animal BN33, 20 mg/kg, week 6 post challenge): 9.10 nM
- Plasma LEN (animal BN33, 20 mg/kg, week 7 post challenge): 5.71 nM
- Plasma LEN (animal BN33, 20 mg/kg, week 8 post challenge): 6.90 nM
- Plasma LEN (animal BN33, 20 mg/kg, week 9 post challenge): 4.70 nM
- Plasma LEN (animal BN33, 20 mg/kg, week 10 post challenge): 4.50 nM
- Plasma LEN (animal CO92, 50 mg/kg, week 0 post challenge): 50.08 nM
- Plasma LEN (animal CO92, 50 mg/kg, week 1 post challenge): 62.65 nM
- Plasma LEN (animal CO92, 50 mg/kg, week 2 post challenge): 47.76 nM
- Plasma LEN (animal CO92, 50 mg/kg, week 3 post challenge): 52.01 nM
- Plasma LEN (animal CO92, 50 mg/kg, week 4 post challenge): 67.23 nM
- Plasma LEN (animal CO92, 50 mg/kg, week 5 post challenge): 66.62 nM
- Plasma LEN (animal CO92, 50 mg/kg, week 6 post challenge): 66.12 nM
- Plasma LEN (animal CO92, 50 mg/kg, week 7 post challenge): 36.27 nM
- Plasma LEN (animal CO92, 50 mg/kg, week 8 post challenge): 42.04 nM
- Plasma LEN (animal CO92, 50 mg/kg, week 9 post challenge): 52.87 nM
- Plasma LEN (animal CO92, 50 mg/kg, week 10 post challenge): 56.39 nM
- Plasma LEN (animal CO92, 50 mg/kg, week 11 post challenge): 43.33 nM
- Plasma LEN (animal CO92, 50 mg/kg, week 12 post challenge): 27.05 nM
- Plasma LEN (animal CO92, 50 mg/kg, week 13 post challenge): 18.50 nM
- Plasma LEN (animal CO92, 50 mg/kg, week 14 post challenge): 13.10 nM
- Plasma LEN (animal CO92, 50 mg/kg, week 15 post challenge): 18.82 nM
- Plasma LEN (animal CO92, 50 mg/kg, week 16 post challenge): 13.67 nM
- Plasma LEN (animal CP67, 75 mg/kg, week 8 post challenge): 37.09 nM
- Plasma LEN (animal CP67, 75 mg/kg, week 9 post challenge): 36.45 nM
- Plasma LEN (animal CP67, 75 mg/kg, week 10 post challenge): 23.67 nM
- Plasma LEN (animal CP67, 75 mg/kg, week 11 post challenge): 20.33 nM
- Plasma LEN (animal V229, 20 mg/kg, week 0 post challenge): 37.30 nM
- Plasma LEN (animal V229, 20 mg/kg, week 6 post challenge): 15.10 nM
- Plasma LEN (animal V229, 20 mg/kg, week 7 post challenge): 8.33 nM
- Plasma LEN (animal V229, 20 mg/kg, week 8 post challenge): 6.00 nM
- Plasma LEN (animal V229, 20 mg/kg, week 9 post challenge): 3.70 nM
- Plasma LEN (animal V229, 20 mg/kg, week 10 post challenge): 4.60 nM
- Plasma LEN (animal V411, 50 mg/kg, week 0 post challenge): 143.42 nM
- Plasma LEN (animal V411, 50 mg/kg, week 1 post challenge): 64.99 nM
- Plasma LEN (animal V411, 50 mg/kg, week 2 post challenge): 55.43 nM
- Plasma LEN (animal V411, 50 mg/kg, week 3 post challenge): 47.46 nM
- Plasma LEN (animal V411, 50 mg/kg, week 4 post challenge): 28.61 nM
- Plasma LEN (animal V411, 50 mg/kg, week 5 post challenge): 19.46 nM
- Plasma LEN (animal V411, 50 mg/kg, week 6 post challenge): 17.89 nM
- Plasma LEN (animal V411, 50 mg/kg, week 7 post challenge): 11.22 nM
- Plasma LEN (animal V411, 50 mg/kg, week 8 post challenge): 7.46 nM
- Plasma LEN (animal V411, 50 mg/kg, week 9 post challenge): 7.40 nM
- Plasma LEN (animal V411, 50 mg/kg, week 10 post challenge): 5.89 nM
- Plasma LEN (animal V411, 50 mg/kg, week 11 post challenge): 3.67 nM
- Plasma LEN (animal V411, 50 mg/kg, week 12 post challenge): 2.40 nM
- Plasma LEN (animal V411, 50 mg/kg, week 13 post challenge): 3.03 nM
- Plasma LEN (animal V411, 50 mg/kg, week 14 post challenge): 2.52 nM
- Plasma LEN (animal V411, 50 mg/kg, week 15 post challenge): 2.21 nM
- Plasma LEN (animal V411, 50 mg/kg, week 16 post challenge): 1.79 nM
- Plasma LEN (animal V417, 75 mg/kg, week 8 post challenge): 23.00 nM
- Plasma LEN (animal V417, 75 mg/kg, week 9 post challenge): 32.44 nM
- Plasma LEN (animal V417, 75 mg/kg, week 10 post challenge): 33.77 nM
- Plasma LEN (animal V426, 75 mg/kg, week 8 post challenge): 36.31 nM
- Plasma LEN (animal V426, 75 mg/kg, week 9 post challenge): 52.45 nM
- Plasma LEN (animal V426, 75 mg/kg, week 10 post challenge): 38.56 nM
- Plasma LEN (animal V426, 75 mg/kg, week 11 post challenge): 38.65 nM
- Plasma LEN (animal V430, 50 mg/kg, week 0 post challenge): 117.17 nM
- Plasma LEN (animal V430, 50 mg/kg, week 1 post challenge): 47.07 nM
- Plasma LEN (animal V430, 50 mg/kg, week 2 post challenge): 55.06 nM
- Plasma LEN (animal V430, 50 mg/kg, week 3 post challenge): 44.89 nM
- Plasma LEN (animal V430, 50 mg/kg, week 4 post challenge): 40.12 nM
- Plasma LEN (animal V430, 50 mg/kg, week 5 post challenge): 30.18 nM
- Plasma LEN (animal V430, 50 mg/kg, week 6 post challenge): 23.37 nM
- Plasma LEN (animal V430, 50 mg/kg, week 7 post challenge): 9.85 nM
- Plasma LEN (animal V430, 50 mg/kg, week 8 post challenge): 6.90 nM
- Plasma LEN (animal V430, 50 mg/kg, week 9 post challenge): 7.41 nM
- Plasma LEN (animal V430, 50 mg/kg, week 10 post challenge): 7.29 nM
- Plasma LEN (animal V430, 50 mg/kg, week 11 post challenge): 3.38 nM
- Plasma LEN (animal V430, 50 mg/kg, week 12 post challenge): 2.44 nM
- Plasma LEN (animal V430, 50 mg/kg, week 13 post challenge): 1.41 nM
- Plasma LEN (animal V430, 50 mg/kg, week 14 post challenge): 1.81 nM
- Plasma LEN (animal V430, 50 mg/kg, week 15 post challenge): 1.32 nM
- Plasma LEN (animal V435, 75 mg/kg, week 7 post challenge): 3.85 nM
- Plasma LEN (animal V435, 75 mg/kg, week 8 post challenge): 2.05 nM
- Plasma LEN (animal V435, 75 mg/kg, week 9 post challenge): 2.10 nM
- Plasma LEN (animal V435, 75 mg/kg, week 10 post challenge): 1.92 nM
- Plasma LEN (animal V470, 50 mg/kg, week 0 post challenge): 100.49 nM
- Plasma LEN (animal V470, 50 mg/kg, week 1 post challenge): 40.04 nM
- Plasma LEN (animal V470, 50 mg/kg, week 2 post challenge): 48.42 nM
- Plasma LEN (animal V470, 50 mg/kg, week 3 post challenge): 50.54 nM
- Plasma LEN (animal V470, 50 mg/kg, week 4 post challenge): 46.19 nM
- Plasma LEN (animal V470, 50 mg/kg, week 5 post challenge): 35.17 nM
- Plasma LEN (animal V470, 50 mg/kg, week 6 post challenge): 44.02 nM
- Plasma LEN (animal V470, 50 mg/kg, week 7 post challenge): 26.59 nM
- Plasma LEN (animal V470, 50 mg/kg, week 8 post challenge): 17.23 nM
- Plasma LEN (animal V470, 50 mg/kg, week 9 post challenge): 20.99 nM
- Plasma LEN (animal V470, 50 mg/kg, week 10 post challenge): 19.02 nM
- Plasma LEN (animal V470, 50 mg/kg, week 11 post challenge): 17.74 nM
- Plasma LEN (animal V470, 50 mg/kg, week 12 post challenge): 12.55 nM
- Plasma LEN (animal V470, 50 mg/kg, week 13 post challenge): 11.15 nM
- Plasma LEN (animal V470, 50 mg/kg, week 14 post challenge): 8.52 nM
- Plasma LEN (animal V470, 50 mg/kg, week 15 post challenge): 6.58 nM
- Plasma LEN (animal V470, 50 mg/kg, week 16 post challenge): 6.37 nM
- duration of plasma exposures above the paEC95 (8.8 nM) (eleven animals of the 3 highest dosing groups): over 10 weeks
- concentration at 8 week [1]: 4.42 nM
- concentration at 9 week [1]: 5.79 nM
- concentration at 10 week [1]: 3.41 nM
- concentration at 11 week [1]: 4.16 nM
- concentration at 12 week [1]: 1.87 nM
- concentration at 14 week [1]: 1.45 nM
- concentration at 8 week [2]: 9.6 nM
- concentration at 9 week [2]: 10.1 nM
- concentration at 10 week [2]: 8.41 nM
- concentration at 11 week [2]: 5.96 nM
- concentration at 12 week [2]: 5.13 nM
- concentration at 14 week [2]: 3.63 nM
- concentration at 8 week [3]: 26.1 nM
- concentration at 9 week [3]: 28 nM
- concentration at 10 week [3]: 27.9 nM
- concentration at 11 week [3]: 15 nM
- concentration at 12 week [3]: 9.8 nM
- concentration at 13 week (male, Indian-origin (outbred), rhesus monkey, plasma, subcutaneous, 20 mg/kg, Plasma LEN (Mean), 20 mg/kg sc, week 13 post dose): 11.7 nM
- concentration at 14 week [3]: 7.07 nM
- concentration at 15 week (male, Indian-origin (outbred), rhesus monkey, plasma, subcutaneous, 20 mg/kg, Plasma LEN (Mean), 20 mg/kg sc, week 15 post dose): 6.07 nM
- concentration at 16 week (male, Indian-origin (outbred), rhesus monkey, plasma, subcutaneous, 20 mg/kg, Plasma LEN (Mean), 20 mg/kg sc, week 16 post dose): 4.07 nM
- concentration at 17 week (male, Indian-origin (outbred), rhesus monkey, plasma, subcutaneous, 20 mg/kg, Plasma LEN (Mean), 20 mg/kg sc, week 17 post dose): 4.4 nM
- concentration at 8 week (male, Indian-origin (outbred), rhesus monkey, plasma, subcutaneous, 50 mg/kg, Plasma LEN (Mean), 50 mg/kg sc): 53.7 nM
